Test results as given in ChEMBL document CHEMBL4765394, “From irreversible to reversible covalent inhibitors: Harnessing the andrographolide scaffold for anti-inflammatory action” (Eur J Med Chem, 2020).
Activity calls are given as the source filed them. The rule behind the calls is not given here.

What was measured:
[1] = Cytotoxicity against human L02 cells assessed as reduction in cell viability measured after 24 hrs by Celltiter-glo assay; format: cell-based
[2] = biological target: T1, Mitogen-activated protein kinase 1 and 3 (ERK2 and ERK1) (Mus musculus) (UniProt P63085+Q63844); experiment: Inhibition of LPS-induced ERK1/2 activation in BSO-treated mouse RAW264.7 cells assessed as reduction in ERK1/2 phosphorylation at 10 uM preincubated for 1 hr followed by LPS-stimulation measured after 4 hrs by Western blot analysis; settings: time 5.0 hrs
T1 sequence (P63085 whole entry, looked up): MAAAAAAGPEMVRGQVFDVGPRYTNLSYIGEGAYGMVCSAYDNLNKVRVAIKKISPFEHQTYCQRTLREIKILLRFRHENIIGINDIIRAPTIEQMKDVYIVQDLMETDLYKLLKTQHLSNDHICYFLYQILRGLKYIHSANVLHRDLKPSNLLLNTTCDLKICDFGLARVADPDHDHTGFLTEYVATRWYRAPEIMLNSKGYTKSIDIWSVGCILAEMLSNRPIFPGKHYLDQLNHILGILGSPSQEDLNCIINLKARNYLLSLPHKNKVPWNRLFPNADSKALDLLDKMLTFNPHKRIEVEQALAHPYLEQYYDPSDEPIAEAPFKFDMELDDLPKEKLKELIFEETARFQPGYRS
T1 sequence (Q63844 whole entry, looked up): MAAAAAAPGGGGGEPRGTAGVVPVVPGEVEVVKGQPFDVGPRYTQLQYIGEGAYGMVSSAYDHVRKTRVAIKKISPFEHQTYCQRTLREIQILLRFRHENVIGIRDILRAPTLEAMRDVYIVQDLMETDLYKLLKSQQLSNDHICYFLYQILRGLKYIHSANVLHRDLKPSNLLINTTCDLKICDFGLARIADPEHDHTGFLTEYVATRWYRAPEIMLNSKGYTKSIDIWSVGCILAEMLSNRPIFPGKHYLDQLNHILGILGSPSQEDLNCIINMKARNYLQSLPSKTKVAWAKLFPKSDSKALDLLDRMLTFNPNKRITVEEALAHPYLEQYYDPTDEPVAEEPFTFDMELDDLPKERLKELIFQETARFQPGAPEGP

[3] = biological target: T1, Mitogen-activated protein kinase 1 and 3 (ERK2 and ERK1) (Mus musculus); experiment: Inhibition of LPS-induced ERK1/2 activation in mouse RAW264.7 cells assessed as reduction in ERK1/2 phosphorylation at 20 uM measured after 4 hrs by Western blot analysis; format: cell-based
RAW264.7 [4] = experiment: Antiinflammatory activity in mouse RAW264.7 cells assessed as inhibition of LPS-induced TNFalpha release at 5 to 10 uM preincubated for 1 hr followed by LPS stimulation and measured after 4 hrs by ELISA; format: functional, cell-based; settings: dose 5-10 µM, time 5.0 hrs
[5] = biological target: RAC-alpha serine/threonine-protein kinase (Mus musculus) (UniProt P31750); experiment: Inhibition of LPS-induced AKT activation in BSO-treated mouse RAW264.7 cells assessed as reduction in AKT phosphorylation at 10 uM preincubated for 1 hr followed by LPS-stimulation measured after 4 hrs by Western blot analysis; settings: time 5.0 hrs
Sequence of RAC-alpha serine/threonine-protein kinase (Mus musculus) (P31750 whole entry): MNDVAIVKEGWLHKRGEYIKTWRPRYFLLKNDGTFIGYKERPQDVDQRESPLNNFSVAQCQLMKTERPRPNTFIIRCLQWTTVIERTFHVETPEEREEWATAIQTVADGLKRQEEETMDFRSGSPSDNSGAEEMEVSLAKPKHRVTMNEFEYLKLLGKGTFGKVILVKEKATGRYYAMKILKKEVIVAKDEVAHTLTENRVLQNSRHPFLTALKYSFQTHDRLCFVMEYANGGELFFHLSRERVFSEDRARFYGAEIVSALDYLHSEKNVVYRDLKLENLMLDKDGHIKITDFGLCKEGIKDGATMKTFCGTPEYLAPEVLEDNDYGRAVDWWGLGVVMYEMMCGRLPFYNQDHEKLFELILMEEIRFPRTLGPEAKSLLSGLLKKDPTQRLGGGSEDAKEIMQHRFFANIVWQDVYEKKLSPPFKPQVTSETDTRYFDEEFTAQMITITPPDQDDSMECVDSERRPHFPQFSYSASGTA

[6] = GSH reactivity in PBS assessed as GSH adduct formation measured up to 8 hrs by HPLC-MS analysis; format: ADME; settings: buffer
RAW-Blue [7] = experiment: Inhibition of LPS-induced NF-kappaB activity in mouse RAW-Blue cells assessed as reduction in SEAP reporter activity at 5 to 20 uM preincubated for 1 hr followed by LPS stimulation and measured after 24 hrs by SEAP reporter gene assay; format: cell-based; settings: dose 5-20 µM, time 25.0 hrs
Mus musculus [8] = experiment: Antiinflammatory activity in ip dosed LPS-induced BALB/c mouse model of acute lung injury assessed as reduction in neutrophil cell count administered twice daily for 4 days starting 1 hr post LPS challenge by differential staining based flow cytometry; format: functional, organism-based; settings: time 4.0 day
[9] = GSH reactivity in PBS assessed as GSH adduct formation by measuring half life by HPLC-MS analysis; format: ADME
RAW264.7 [10] = experiment: Antiinflammatory activity in mouse RAW264.7 cells assessed as inhibition of LPS-induced IL6 release at 5 to 10 uM preincubated for 1 hr followed by LPS stimulation and measured after 24 hrs by ELISA; format: functional, cell-based; settings: dose 5-10 µM, time 25.0 hrs
RAW264.7 [11] = experiment: Antiinflammatory activity in 4 hrs NAC-pretreated mouse RAW264.7 cells assessed as inhibition of LPS-induced TNFalpha release at 10 uM preincubated for 1 hr followed by LPS stimulation and measured after 4 hrs by ELISA relative to control; format: functional; settings: time 5 hrs
RAW264.7 [12] = experiment: Activation of JNK phosphorylation in mouse RAW264.7 cells at 50 uM measured after 4 hrs by Western blot analysis; format: cell-based
Mus musculus [13] = experiment: Antiinflammatory activity in LPS-induced BALB/c mouse model of acute lung injury assessed as reduction in total cell count at 1 mg/kg, ip administered twice daily for 4 days starting 1 hr post LPS challenge by differential staining based flow cytometry relative to control; format: functional; set-up: scale not given: the % may be the effect or the level left; settings: time 4 day
[14] = biological target: T2, Nuclear factor NF-kappa-B p105 subunit (Homo sapiens) (UniProt P19838); experiment: Binding affinity to human NF-kappaB p50 assessed as compound-adduct formation by MALDI-TOF analysis
T2 sequence (whole entry): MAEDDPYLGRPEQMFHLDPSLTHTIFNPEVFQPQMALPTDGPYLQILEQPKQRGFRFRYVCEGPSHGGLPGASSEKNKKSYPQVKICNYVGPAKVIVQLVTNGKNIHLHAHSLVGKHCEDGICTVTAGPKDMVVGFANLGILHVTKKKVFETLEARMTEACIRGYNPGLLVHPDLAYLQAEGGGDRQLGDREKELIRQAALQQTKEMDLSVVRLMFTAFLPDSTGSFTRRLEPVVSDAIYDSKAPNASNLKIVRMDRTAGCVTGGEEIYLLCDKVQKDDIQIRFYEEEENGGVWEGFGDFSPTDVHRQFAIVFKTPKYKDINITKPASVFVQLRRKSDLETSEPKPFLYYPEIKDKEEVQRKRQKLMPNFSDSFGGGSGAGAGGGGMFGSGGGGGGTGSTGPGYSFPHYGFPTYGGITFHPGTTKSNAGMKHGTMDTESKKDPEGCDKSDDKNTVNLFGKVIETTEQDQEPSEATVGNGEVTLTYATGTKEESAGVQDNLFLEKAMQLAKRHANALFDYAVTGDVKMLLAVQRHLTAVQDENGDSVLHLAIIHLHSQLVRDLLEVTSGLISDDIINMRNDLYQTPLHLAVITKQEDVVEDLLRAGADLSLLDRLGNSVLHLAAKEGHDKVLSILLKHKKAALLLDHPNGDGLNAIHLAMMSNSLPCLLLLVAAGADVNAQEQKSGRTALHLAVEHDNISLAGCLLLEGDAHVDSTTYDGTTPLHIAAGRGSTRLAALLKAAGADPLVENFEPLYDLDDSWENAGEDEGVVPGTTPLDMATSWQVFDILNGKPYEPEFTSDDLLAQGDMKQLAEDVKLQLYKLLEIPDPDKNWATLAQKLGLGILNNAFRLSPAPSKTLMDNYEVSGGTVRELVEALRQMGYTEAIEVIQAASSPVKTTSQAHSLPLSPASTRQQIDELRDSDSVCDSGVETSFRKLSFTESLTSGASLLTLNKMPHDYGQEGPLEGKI

RAW-Blue [15] = experiment: Activation of NF-kappaB activity in mouse RAW-Blue cells assessed as increase in SEAP reporter activity at 30 uM measured after 24 hrs in presence of p38 inhibitor SB203580 by SEAP reporter gene assay; format: cell-based
[16] = Effect on total AKT expression in LPS-induced mouse RAW264.7 cells at 5 to 20 uM measured after 4 hrs by Western blot analysis; settings: raw264.7, 4 h, dose 5-20 µM
[17] = Aqueous stability of compound; format: physicochemical; settings: buffer
RAW-Blue [18] = experiment: Inhibition of LPS-induced NF-kappaB activity in mouse RAW-Blue cells assessed as reduction in SEAP reporter activity at 5 to 20 uM preincubated for 1 hr followed by LPS stimulation and measured after 8 hrs by SEAP reporter gene assay; format: cell-based; settings: dose 5-20 µM, time 9.0 hrs
[19] = biological target: T2, Nuclear factor NF-kappa-B p105 subunit (Homo sapiens); experiment: Inhibition of DNA binding activity of human NF-kappaB p50 measured after 1 hr by ELISA
[20] = Cytotoxicity against HEK293 cells assessed as reduction in cell viability measured after 24 hrs by Celltiter-glo assay; format: cell-based; settings: human
RAW264.7 [21] = experiment: Activation of JNK phosphorylation in BSO-treated mouse RAW264.7 cells at 50 uM measured after 4 hrs by Western blot analysis
RAW264.7 [22] = experiment: Antiinflammatory activity in 2 hrs NAC-pretreated mouse RAW264.7 cells assessed as inhibition of LPS-induced TNFalpha release at 10 uM preincubated for 1 hr followed by LPS stimulation and measured after 4 hrs by ELISA relative to control; format: functional; settings: time 5 hrs
RAW264.7 [23] = experiment: Antiinflammatory activity in 24 hrs NAC-pretreated mouse RAW264.7 cells assessed as inhibition of LPS-induced TNFalpha release at 10 uM preincubated for 1 hr followed by LPS stimulation and measured after 4 hrs by ELISA relative to control; format: functional; settings: time 5 hrs
Mus musculus [24] = experiment: Antiinflammatory activity in LPS-induced BALB/c mouse model of acute lung injury assessed as reduction in neutrophil cell count at 1 mg/kg, ip administered twice daily for 4 days starting 1 hr post LPS challenge by differential staining based flow cytometry relative to control; format: functional; set-up: scale not given: the % may be the effect or the level left; settings: time 4 day
[25] = biological target: RAC-alpha serine/threonine-protein kinase (Mus musculus) (UniProt P31750); experiment: Inhibition of LPS-induced AKT activation in mouse RAW264.7 cells assessed as reduction in AKT phosphorylation measured after 4 hrs by Western blot analysis; format: cell-based
RAW264.7 [26] = experiment: Cytotoxicity against mouse RAW264.7 cells assessed as reduction cell viability at 5 to 50 uM measured after 24 hrs by Celltiter-glo assay; format: cell-based; settings: raw264.7, 24 h, dose 5-50 µM
[27] = GSH reactivity in PBS assessed as isomerization measured up to 24 hrs by HPLC-MS analysis; format: ADME; settings: buffer
Mus musculus [28] = experiment: Antiinflammatory activity in ip dosed LPS-induced BALB/c mouse model of acute lung injury assessed as reduction in total cell count administered twice daily for 4 days starting 1 hr post LPS challenge by differential staining based flow cytometry; format: functional, organism-based; settings: time 4.0 day
RAW-Blue [29] = experiment: Activation of NF-kappaB activity in mouse RAW-Blue cells assessed as increase in SEAP reporter activity at 5 to 20 uM measured after 24 hrs by SEAP reporter gene assay; format: cell-based; settings: dose 5-20 µM

## C=C1CC[C@@H]2[C@](C)(CO)[C@H](O)CC[C@@]2(C)[C@@H]1C/C=C/C(C)=O
[1]
  CC50 at 24 h: 30.1 µM
[2]
  inhibition: Active
[3]
  inhibition: Active
RAW264.7 [4]
  inhibition: Active
[5]
  inhibition: Active
[6]
  K: 2.11e-05 M⁻¹ s⁻¹
RAW-Blue [7]
  inhibition: Active
Mus musculus [8]
  Activity: Dose-dependent effect
[9]
  t1/2: 6.47 h
RAW264.7 [10]
  inhibition: Active
RAW264.7 [11]
  inhibition at 10 µM: 23%
RAW264.7 [12]
  Activity: inactive
Mus musculus [13]
  Activity: >30%
[14]
  Activity: Active
RAW-Blue [15]
  Activity: inactive
[16]
  Activity: Non-Toxic
[17]
  Stabilty: Stable
RAW-Blue [18]
  inhibition: Active
[19]
  inhibition: Dose-dependent effect
[20]
  CC50 at 24 h: 67 µM
RAW264.7 [21]
  Activity: inactive
RAW264.7 [22]
  inhibition at 10 µM: 12%
RAW264.7 [23]
  inhibition at 10 µM: 51%
Mus musculus [24]
  Activity: >30%
[25]
  inhibition: Dose-dependent effect
RAW264.7 [26]
  Activity: Toxic
[27]
  Drug metabolism: Metabolite_Notdetected
Mus musculus [28]
  Activity: Dose-dependent effect
RAW-Blue [29]
  Activity: inactive
